Measurements reported in patent publication US6599529B1, “Modified release multiple-units compositions of non-steroid anti-inflammatory drug substances (NSAIDs)” (Nycomed Danmark A/S, priority 1997, dated 2003).

How the values were obtained:
[1] = cited from earlier work
[2] = Solubility in 0.1 N HCl / water; format: physicochemical
[3] = in water and 0.1 N HCl at room temperature; cited from earlier work

SMILES	pKa value [1]	solubility ([2]; at a pH corresponding to 0.1 N HCl, room temperature)	solubility ([2]; in 0.1 N HCl (aqueous solution of 0.1 N hydrochloric acid)) [mg/100 ml]	solubility (in words) [3]
CN1C(C(=O)Nc2ccccn2)=C(O)c2sc(Cl)cc2S1(=O)=O [lornoxicam]	about 4.7	less than 1 mg/100 ml	< 1	–
CC(=O)Oc1ccccc1C(=O)O [acetylsalicylic acid]	–	–	–	practically insoluble
COc1ccc2c(c1)c(CC(=O)O)c(C)n2C(=O)c1ccc(Cl)cc1 [indometacin]	–	–	–	practically insoluble
